Tests used:
Tel-cKit-BaF3 = assay: Proliferation of Tel-cKit-BaF3 cells, CCK8 cell viability assay; assay type: cell-based, mouse; details: Mus musculus; 72 hours, CCK8; stably expressing cKIT kinase
Method in brief: (§1)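 Growth inhibition is expressed as GI50 in μM, with living-cell number estimated by reductive dehydrogenase activity in a CCK8 assay. The engineered BaF3 lines express TEL-fused human cKIT, PDGFRα or PDGFRβ and proliferate without IL-3 only through that kinase.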

[1] = Phosphorylation of STATS downstream of FLT3 in AML cells; assay type: cell-based, human; details: MV-4-11, MOLM13 and MOLM-14; 4 hours; compounds 0.01-3 μM, PKC412 1 μM
Description: In cells having FLT3 gene and/or FLT3/ITD mutant gene, specifically, human acute myeloid leukemia cells MV4-11 (expressing FLT3/ITD mutant gene) cell strain and human acute myeloid leukemia cells MOLM-13 and MOLM-14 (expressing FLT3/ITD mutant gene and wild-type FLT3 gene) cell strains, Compound 5, Compound 135 and a FLT3 kinase inhibitor, PKC412 (purchased from Hao Yuan Chemexpress Company, Shanghai), which was used as the control, were evaluated for their effects in cells on phosphorylation of FLT3 and FLT3/ITD protein kinase and phosphorylation of the closely-related STATS protein which is downstream of FLT3 signaling pathways, as well as their effects on phosphorylation of other relevant protein kinases such as ERK and AKT, by assaying a number of cellular biochemical and functional endpoints. In addition, the effects on C-Myc and phosphorylation of the transcription factor NF-κB subunit p65 was also examined (FIGS. 1a-1f). Compound 5 and Compound 135 at different concentrations (0 μM, 0.01 μM, 0.03 μM, 0.1 μM, 0.3 μM, 1 μM, 3 μM in DMSO) and the FLT3 kinase inhibitor PKC412 (1 μM in DMSO) were used to treat acute myeloid leukemia cells MV-4-11, MOLM13 and MOLM-14 that had FLT3 and/or FLT3/ITD gene for 4 hours, respectively, and then the samples were collected. The effects of the compounds on the phosphorylation of proteins such as STATS, C-Myc, ERK, NF-κB p65, AKT in cells were tested (FIGS. 1a-1f).

TEL-PDGFRβ-BaF3 = assay: Proliferation of TEL-PDGFRβ-BaF3 cells, CCK8 cell viability assay; assay type: cell-based; details: Mus musculus, 72 hours, stably expressing PDGFRβ kinase
Method in brief: as §1

FLT3-ITD-BaF3 = assay: Proliferation of FLT3-ITD-BaF3 cells, CCK8 cell viability assay; assay type: cell-based; details: Mus musculus, 72 hours, stably expressing FLT3/ITD
Method in brief: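 Murine BaF3 cells made IL-3-independent by retroviral transduction of human kinase domains fused to N-terminal TEL or TPR fragments; parental BaF3 included. Living cells quantified by CCK8 (dehydrogenase activity) read-out, giving GI50 in μM.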

[2] = test system: Chinese hamster ovary (CHO) cells; assay: cells; assay type: cell-based; details: Cricetulus griseus, 72 hours, Cell Titer-Glo
Description: (§2) In addition, in this example the inhibitory activity of preferred compounds (Compound 5 and Compound 135) was tested against the following cell strains: human acute myeloid leukemia cell strain MV4-11 (expressing FLT3/ITD mutant gene), human acute myeloid leukemia cell strain MOLM-13 (expressing FLT3/ITD mutant gene and wild-type FLT3 gene), human acute myeloid leukemia cell strain MOLM-14 (expressing FLT3/ITD mutant gene and wild-type FLT3 gene), human acute myeloid leukemia cell strain OCI-AML-3 (expressing FLT3 A680V mutant gene), human chronic lymphatic leukemia cell strain MEC-1, Chinese hamster lung (CHL) cells, Chinese hamster ovary (CHO) cells, wherein all the cells were purchased from ATCC. In the example the compounds of the present invention were added respectively into the above cells at different concentrations (0.000508 μM, 0.00152 μM, 0.00457 μM, 0.0137 μM, 0.0411 μM, 0.123 μM, 0.370 μM, 1.11 μM, 3.33 μM, 10 μM in DMSO) and the cells were incubated for 72 hours. The number of viable cells was determined by quantification of ATP in living cells using Cell Titer-Glo® (Promega, the USA) Luminescent Cell Viability Assay kit and thereby GI50 was calculated.

[3] = test system: human acute myeloid leukemia cell strain MV4-11; assay: Proliferation of MV4-11 cells, Cell Titer-Glo; assay type: cell-based; details: for GI50: Homo sapiens, MV4-11, 72 hours, Cell Titer-Glo, FLT3/ITD
Description: as §2

BaF3 = assay: Proliferation of BaF3 cells, CCK8 cell viability assay; assay type: cell-based; details: Mus musculus, 72 hours
Method in brief: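 Human kinase-region sequences were PCR-amplified, fused behind N-terminal TEL in MSCV-Puro and stably introduced into mouse BaF3 by retrovirus. IL-3 was then removed to give kinase-dependent lines. Compound effects on these and on parental BaF3 are scored as GI50 (μM) via CCK8 viable-cell quantification.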

[4] = test system: poly(ADP-ribose) polymerase (PARP); assay: Cell apoptosis: PARP cleavage by Western Blot in AML cells; assay type: cell-based, human; details: 1 μM, 24 hours; MOLM-13, MOLM-14, MV-4-11
From the text: In human acute myeloid leukemia cells MV4-11 (expressing FLT3/ITD mutant gene) cell strain and human acute myeloid leukemia cells MOLM-13 and MOLM-14 (expressing FLT3/ITD mutant gene and wild-type FLT3 gene) cell strains, the effects of Compound 5 and Compound 135 on protein cleavage of the DNA repairase poly(ADP-ribose) polymerase (PARP) and Caspase (cysteinyl aspartate-specific proteinase) 3 that were closely related to cell apoptosis were examined in cells in order to confirm whether the death of the cells after the administration was caused by apoptosis or necrosis. MOLM-13, MOLM-14, MV-4-11 cell strains were treated with Compound 5, Compound 135 (at different concentrations: 0 μM, 0.1 μM, 0.3 μM, 1 μM, 3 μM in DMSO) and the control compound PKC412 (purchased from MedChem Express) (1 μM in DMSO), respectively, and the cells were collected after 24 hours. Western Blot was used to detect the effects of different concentrations of compounds on protein cleavage of the DNA repairase poly(ADP-ribose) polymerase (PARP) and Caspase (cysteinyl aspartate-specific proteinase) 3.

Tel-RET-BaF3 = assay: Proliferation of Tel-RET-BaF3 cells, CCK8 cell viability assay; assay type: cell-based; details: Mus musculus, 72 hours, stably expressing RET kinase

Row | Structure (SMILES) | GI50 (Tel-cKit-BaF3) [µM] | phosphorylation of STATS [1] | GI50 (TEL-PDGFRβ-BaF3) [µM] | GI50 (FLT3-ITD-BaF3) [µM] | GI50 [2] [µM] | GI50 [3] [µM] | GI50 (BaF3) [µM] | cleavage of the DNA repairase poly(ADP-ribose) polymerase (PARP) [4] | GI50 (Tel-RET-BaF3) [µM] | inhibition of MV4-11 (in words) ([3]; summary of Table 3)
1 | CC(=O)Nc1cc(Oc2ccc(NC(=O)Cc3ccccc3C(F)(F)F)cc2)ncn1 [Example 135, N-[4-(6-acetylamino-pyrimidin-4-yloxy)-phenyl]-2-(2-trifluoromethyl-phenyl)-acetamide] | > 10 | significant inhibition | 0.04 | 0.032 | > 10 | 0.284 | > 10 | significant cleavage | > 10 | 
2 | CC(=O)Nc1cc(Oc2ccc(NC(=O)Cc3ccc(F)cc3F)cc2)ncn1 [Example 5, N-[4-(6-acetylamino-pyrimidin-4-yloxy)-phenyl]-2-(2,4-difluoro-phenyl)-acetamide] | 5.6 | significant inhibition | 0.058 | 0.03 | > 10 | 0.147 | > 10 | significant cleavage | > 10 | selectively and strongly inhibited

Reference: US11602534B2, “Pyrimidine derivative kinase inhibitors” (HEFEI INSTITUTES OF PHYSICAL SCIENCE, CHINESE ACADEMY OF …, priority 2017, dated 2023)
